Assay results published in ChEMBL document CHEMBL4229366, “Synthesis and evaluation of novel coumarin-oxime ethers as potential anti-tubercular agents: Their DNA cleavage ability and BSA interaction study” (Eur J Med Chem, 2018).
Values after ≈ are worked out from the molar mass of the structure shown. Active and inactive are the calls of the source. The rule behind the calls is not given here.

Experiments:
[1] = system: Mycobacterium tuberculosis; assay: Antitubercular activity against Mycobacterium tuberculosis H37Rv ATCC 27294 at 6.25 ug/ml after 5 days by MABA method; assay type: functional; conditions: H37Rv ATCC 27294, 120 h, read-out: GI
[2] = system: Mycobacterium tuberculosis; assay: Antitubercular activity against Mycobacterium tuberculosis H37Rv ATCC 27294 after 5 days by MABA method; assay type: functional; conditions: H37Rv ATCC 27294, 120 h
[3] = Dissociation constant, pKa of the compound by potentiometric titration method; assay type: physicochemical
[4] = Cytotoxicity against African green monkey Vero cells assessed as cell survival at 3.9 ug/ml after 72 hrs by MTS-PMS assay; assay type: cell-based; conditions: chlorocebus sabaeus, read-out: Survival
[5] = system: Calf thymus DNA; assay: Induction of calf thymus DNA cleavage at 5 uM by ethidium bromide based agarose gel electrophoresis method; assay type: nucleic-acid assay; conditions: Bos taurus
[6] = Cytotoxicity against African green monkey Vero cells assessed as cell survival at 31.2 ug/ml after 72 hrs by MTS-PMS assay; assay type: cell-based; conditions: chlorocebus sabaeus, read-out: Survival
[7] = Cytotoxicity against African green monkey Vero cells assessed as cell survival at 0.4 ug/ml after 72 hrs by MTS-PMS assay; assay type: cell-based; conditions: chlorocebus sabaeus, read-out: Survival
[8] = Stability of the compound at pH 4.4 to 8.2 by electronic absorption spectroscopic analysis; assay type: physicochemical; conditions: buffer
[9] = molecular target: T1, Albumin (Bos taurus, UniProt P02769); assay: Binding affinity to bovine serum albumin in pH 7.4 phosphate buffer at 27 degC assessed as association constant by UV-vis spectroscopic analysis; assay type: ADME; conditions: cattle, isolated protein
T1 sequence (P02769 whole entry): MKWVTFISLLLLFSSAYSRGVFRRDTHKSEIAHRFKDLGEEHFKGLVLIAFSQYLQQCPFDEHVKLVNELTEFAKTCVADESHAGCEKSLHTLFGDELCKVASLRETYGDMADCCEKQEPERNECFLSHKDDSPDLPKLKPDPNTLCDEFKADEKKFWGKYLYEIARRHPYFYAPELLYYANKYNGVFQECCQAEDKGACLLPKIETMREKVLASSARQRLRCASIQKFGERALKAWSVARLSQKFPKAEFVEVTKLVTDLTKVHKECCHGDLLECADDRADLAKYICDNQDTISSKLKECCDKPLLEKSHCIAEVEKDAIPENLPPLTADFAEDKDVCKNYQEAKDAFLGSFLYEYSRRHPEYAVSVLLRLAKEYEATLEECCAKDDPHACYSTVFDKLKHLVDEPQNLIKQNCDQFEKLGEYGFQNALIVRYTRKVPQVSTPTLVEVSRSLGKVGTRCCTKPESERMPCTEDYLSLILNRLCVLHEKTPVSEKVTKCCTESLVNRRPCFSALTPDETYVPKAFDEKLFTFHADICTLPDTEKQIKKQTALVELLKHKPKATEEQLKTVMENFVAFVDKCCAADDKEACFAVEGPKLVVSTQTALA

[10] = molecular target: T1, Albumin; assay: Binding affinity to bovine serum albumin in pH 7.4 phosphate buffer at 27 degC assessed as Gibbs free energy change by UV-vis spectroscopic analysis; assay type: ADME; conditions: cattle, isolated protein
[11] = molecular target: T1, Albumin; assay: Binding affinity to bovine serum albumin assessed as Stern-Volmer quenching constant in phosphate buffer of pH 7.4 by fluorescence spectroscopic analysis; assay type: ADME; conditions: cattle, isolated protein
[12] = molecular target: T1, Albumin; assay: Binding affinity to bovine serum albumin assessed as quenching constant in phosphate buffer of pH 7.4 by fluorescence spectroscopic analysis; assay type: ADME; conditions: cattle, isolated protein
[13] = molecular target: T1, Albumin; assay: Binding affinity to bovine serum albumin assessed as association constant in phosphate buffer of pH 7.4 by fluorescence spectroscopic analysis; assay type: ADME; conditions: cattle, isolated protein
[14] = molecular target: T1, Albumin; assay: Binding affinity to bovine serum albumin in pH 7.4 phosphate buffer at 27 degC by UV-vis spectroscopic analysis; assay type: ADME; conditions: cattle, isolated protein
[15] = Cytotoxicity against African green monkey Vero cells assessed as cell survival at 1.9 ug/ml after 72 hrs by MTS-PMS assay; assay type: cell-based; conditions: chlorocebus sabaeus, read-out: Survival
[16] = Stability of the compound at pH 4.4 to 8.6 by electronic absorption spectroscopic analysis; assay type: physicochemical; conditions: buffer
[17] = Cytotoxicity against African green monkey Vero cells assessed as cell survival at 0.2 ug/ml after 72 hrs by MTS-PMS assay; assay type: cell-based; conditions: chlorocebus sabaeus, read-out: Survival
[18] = Cytotoxicity against African green monkey Vero cells assessed as cell survival at 0.9 ug/ml after 72 hrs by MTS-PMS assay; assay type: cell-based; conditions: chlorocebus sabaeus, read-out: Survival

SMILES | inhibition of growth at 6.25 µg/mL [1] [%] | MIC [2] [µg/mL] | pKa [3] | Activity [5] | also measured
CC(=O)/C(C)=N/OCc1cc(=O)oc2cc(C)ccc12 | 91 | 0.39 (≈ 1.43 µM) | 5.5 | inactive | viability at 72 h, 3.9 ug/ml [4]: 59%
CC(=O)/C(C)=N/OCc1cc(=O)oc2ccc(Br)cc12 | 81 | – | 5.4 | Active | –
CC(=O)/C(C)=N/OCc1cc(=O)oc2cc(Cl)ccc12 | 21 | – | 5.4 | inactive | –
CC(=O)/C(C)=N/OCc1cc(=O)oc2c1ccc1ccccc12 | 87 | – | 5.6 | inactive | –
CC(=O)/C(C)=N/OCc1cc(=O)oc2ccc3ccccc3c12 | 90 | 3.12 (≈ 10.1 µM) | 5.6 | Active | viability at 72 h, 31.2 ug/ml [6]: 67%
CC(=O)/C(C)=N/OCc1cc(=O)oc2ccc(Cl)cc12 | 26 | – | 5.4 | Active | –
O=c1cc(CSC2=NCCS2)c2cc(Cl)ccc2o1 | – | 0.09 (≈ 0.289 µM) | – | – | –
CC(=O)/C(C)=N/OCc1cc(=O)oc2cc(C)cc(C)c12 | 97 | 0.04 (≈ 0.139 µM) | 5.5 | Active | viability at 72 h, 0.4 ug/ml [7]: 89%; Stability [8]: Stable; Ka [9]: 1.24 ×10⁴ L/mol; deltaG [10]: -5.619 kcal/mol; KSV [11]: 6.19 ×10⁴ /mol; Kq [12]: 1.07 ×10¹³ /mol/s; Ka [13]: 1.37 ×10⁴ L/mol; Activity [14]: Dose-dependent effect
COc1ccc2oc(=O)cc(CO/N=C(\C)C(C)=O)c2c1 | 94 | 0.19 (≈ 0.657 µM) | 5.8 | Active | viability at 72 h, 1.9 ug/ml [15]: 78%; Stability [16]: Stable
NNC(=O)c1ccncc1 [ISONIAZID] | 100 | 0.02 (≈ 0.146 µM) | 1.8 to 9.5 | – | viability at 72 h, 0.2 ug/ml [17]: 98%
CC(=O)/C(C)=N/OCc1cc(=O)oc2c(C)c(C)ccc12 | 95 | 0.09 (≈ 0.313 µM) | 5.5 | Active | viability at 72 h, 0.9 ug/ml [18]: 84%; Stability [16]: Stable
CC(=O)/C(C)=N/OCc1cc(=O)oc2ccc(C)cc12 | 92 | 0.39 (≈ 1.43 µM) | 5.7 | Active | viability at 72 h, 3.9 ug/ml [4]: 72%; Stability [16]: Stable
